According to patent publication US7384629B2, “Biological control of nematodes with Hirsutella minnesotensis” (Regents of the University of Minnesota, priority 2000, dated 2008):
Like-named read-outs stand apart in the source and are kept apart here.

Tests used:
[1] = system: Hirsutella rhossiliensis; test: Effect of nitrogen source on growth, sporulation and spore germination; details: for Growth mm-in-diam, on agar: nitrogen source 0.3296 g/L nitrogen; for Growth mm-in-diam, on agar / growth in liquit culture (visual rating) / Sporulation 10^3/cm^2, on agar: 5 weeks; for Spore germination %, on agar / growth in liquit culture (visual rating) / Sporulation 10^3/cm^2, on agar: nitrogen source
[2] = system: Hirsutella rhossiliensis; details: for Growth rate mm-in-diam, on agar: named vitamin excluded from medium with all other vitamins; for Growth rate mm-in-diam, on agar / Sporulation 10^3/cm^2, on agar / growth in liquit culture (visual rating): 5 weeks; for Spore germination %, on agar / Sporulation 10^3/cm^2, on agar / growth in liquit culture (visual rating): named vitamin excluded
[3] = system: Hirsutella rhossiliensis; test: Effect of carbon source on growth, sporulation and spore germination; details: for Growth mm-in-diam, on agar: carbon source 4 g/liter carbon; for Spore germination %, on agar: after incubation for 24 hr
[4] = carbon source, isolate JA16-1, 5 weeks

Row | Compound | Growth mm-in-diam, on agar ([1]; isolate ATCC46487) [mm-in-diam] | Growth mm-in-diam, on agar ([1]; isolate JA16-1) [mm-in-diam] | Growth mm-in-diam, on agar ([1]; isolate OWVT-1) | Spore germination %, on agar ([1]; isolate ATCC46487) [%] | Spore germination %, on agar ([1]; isolate JA16-1) [%] | Spore germination %, on agar ([1]; isolate OWVT-1) [%] | growth in liquit culture (visual rating) ([1]; isolate OWVT-1) | growth in liquit culture (visual rating) ([1]; isolate JA16-1) | further results
1 | NC(CCC(=O)O)C(=O)O (racemic) [DL-Glutamic acid] | 40.8 | 12.8 | 18.7 mm-in-diam | 74.4 | 90.0 | 48.9 | III (III = hyphae growth or colonies form a pellet, less than 2.5 ml) |  | 
2 | CSCCC(N)C(=O)O (racemic) [DL-Methionine] | 11.7 | 0.0 | 0.0^ mm-in-diam | 74.4 | 70.0 | 63.3 | I | I | Sporulation 10^3/cm^2, on agar ([1]; isolate ATCC46487): 3.2 10^3/cm^2; growth in liquit culture (visual rating) ([1]; isolate ATCC46487): III (III = hyphae growth or colonies form a pellet, less than 2.5 ml); Sporulation 10^3/cm^2, on agar ([1]; isolate JA16-1): 10.8 10^3/cm^2; Sporulation 10^3/cm^2, on agar ([1]; isolate OWVT-1): 0.0 10^3/cm^2
3 | NC(CO)C(=O)O (racemic) [DL-Serine] | 45.3 | 10.2 | 17.2 mm-in-diam | 84.4 | 87.8 | 72.2 | IV (IV = the pellet diameter larger than 1 cm, but the total volume distribution less than 5 ml) | III (III = hyphae growth or colonies form a pellet, less than 2.5 ml) | 
4 | C[C@@H](O)[C@H](N)C(=O)O (racemic) [DL-Threonine] | 25.4 | 8.3 | 9.0 mm-in-diam | 93.3 | 83.3 | 48.9 | III (III = hyphae growth or colonies form a pellet, less than 2.5 ml) | IV (IV = the pellet diameter larger than 1 cm, but the total volume distribution less than 5 ml) | 
5 | CC(C)(CO)C(O)C(=O)NCCC(=O)O (racemic) [DL-pantothenic acid] |  |  |  |  |  |  |  |  | Growth rate mm-in-diam, on agar ([2]; isolate ATCC46487): 39.5 mm-in-diam; Growth rate mm-in-diam, on agar ([2]; isolate JA16-1): 18.8 mm-in-diam; Growth rate mm-in-diam, on agar ([2]; isolate OWVT-1): 29.3 mm-in-diam; Spore germination %, on agar ([2]; isolate ATCC46487): 72.2%; Sporulation 10^3/cm^2, on agar ([2]; isolate ATCC46487): 28.6 10^3/cm^2; Spore germination %, on agar ([2]; isolate JA16-1): 88.9%; Sporulation 10^3/cm^2, on agar ([2]; isolate JA16-1): 17.1 10^3/cm^2; growth in liquit culture (visual rating) ([2]; isolate JA16-1): I; Spore germination %, on agar ([2]; isolate OWVT-1): 55.6%; Sporulation 10^3/cm^2, on agar ([2]; isolate OWVT-1): 9.9 10^3/cm^2
6 | Nc1nc2ncc(CNc3ccc(C(=O)N[C@@H](CCC(=O)O)C(=O)O)cc3)nc2c(=O)[nH]1 [Folic acid] |  |  |  |  |  |  |  |  | Growth rate mm-in-diam, on agar ([2]; isolate ATCC46487): 39.3 mm-in-diam; Growth rate mm-in-diam, on agar ([2]; isolate JA16-1): 19.7 mm-in-diam; Growth rate mm-in-diam, on agar ([2]; isolate OWVT-1): 28.7 mm-in-diam; Spore germination %, on agar ([2]; isolate ATCC46487): 82.2%; Sporulation 10^3/cm^2, on agar ([2]; isolate ATCC46487): 59.7 10^3/cm^2; Spore germination %, on agar ([2]; isolate JA16-1): 87.8%; Sporulation 10^3/cm^2, on agar ([2]; isolate JA16-1): 24.2 10^3/cm^2; growth in liquit culture (visual rating) ([2]; isolate JA16-1): I; Spore germination %, on agar ([2]; isolate OWVT-1): 61.1%; Sporulation 10^3/cm^2, on agar ([2]; isolate OWVT-1): 15.4 10^3/cm^2
7 | NCC(=O)O [Glycine] | 41.5 | 7.5 | 10.7 mm-in-diam | 75.6 | 93.3 | 60.0 | III (III = hyphae growth or colonies form a pellet, less than 2.5 ml) | III (III = hyphae growth or colonies form a pellet, less than 2.5 ml) | 
8 | NC(=O)C[C@H](N)C(=O)O [L-Asparagine] | 51.8 | 16.5 | 20.8 mm-in-diam | 93.3 | 85.5 | 70.0 | III (III = hyphae growth or colonies form a pellet, less than 2.5 ml) | IV (IV = the pellet diameter larger than 1 cm, but the total volume distribution less than 5 ml) | 
9 | N[C@@H](CC(=O)O)C(=O)O [L-Aspartic acid] | 43.8 | 13.3 | 16.8 mm-in-diam | 93.3 | 90.0 | 53.3 | III (III = hyphae growth or colonies form a pellet, less than 2.5 ml) | IV (IV = the pellet diameter larger than 1 cm, but the total volume distribution less than 5 ml) | 
10 | N[C@@H](Cc1c[nH]cn1)C(=O)O [L-Histidine] | 36.3 | 8.5 | 12.8 mm-in-diam | 82.2 | 82.2 | 65.6 | III (III = hyphae growth or colonies form a pellet, less than 2.5 ml) |  | Sporulation 10^3/cm^2, on agar ([1]; isolate ATCC46487): 1.8 10^3/cm^2; Sporulation 10^3/cm^2, on agar ([1]; isolate JA16-1): 3.4 10^3/cm^2; Sporulation 10^3/cm^2, on agar ([1]; isolate OWVT-1): 2.1 10^3/cm^2
11 | N[C@@H](Cc1ccccc1)C(=O)O [L-Phenylalanine] | 34.3 | 11.7 | 17.5 mm-in-diam | 77.8 | 86.7 | 68.3 | IV (IV = the pellet diameter larger than 1 cm, but the total volume distribution less than 5 ml) |  | Sporulation 10^3/cm^2, on agar ([1]; isolate ATCC46487): 7.9 10^3/cm^2; Sporulation 10^3/cm^2, on agar ([1]; isolate JA16-1): 79.0 10^3/cm^2; Sporulation 10^3/cm^2, on agar ([1]; isolate OWVT-1): 15.9 10^3/cm^2
12 | N[C@@H](CSSC[C@H](N)C(=O)O)C(=O)O [L-cystine] | 0.0 | 0.0 | 0.0^ mm-in-diam | 14.4 | 4.4 | 5.6 |  | 0 | 
13 | O=C(O)[C@@H]1CCCN1 [L-proline] | 47.2 | 17.0 | 23.8 mm-in-diam | 86.7 | 86.7 | 60.0 | III (III = hyphae growth or colonies form a pellet, less than 2.5 ml) |  | 
14 | N[C@@H](Cc1ccc(O)cc1)C(=O)O [L-tyrosine] |  |  |  | 91.1 | 86.7 | 67.8 |  |  | 
15 | O=[N+]([O-])[O-].[Na+] [NaNO3] | 39.2 | 15.3 | 21.7 mm-in-diam | 86.7 | 73.3 | 55.6 |  | I | Sporulation 10^3/cm^2, on agar ([1]; isolate ATCC46487): 10.0 10^3/cm^2; growth in liquit culture (visual rating) ([1]; isolate ATCC46487): IV (IV = the pellet diameter larger than 1 cm, but the total volume distribution less than 5 ml); Sporulation 10^3/cm^2, on agar ([1]; isolate JA16-1): 6.4 10^3/cm^2; Sporulation 10^3/cm^2, on agar ([1]; isolate OWVT-1): 35.9 10^3/cm^2
16 | O=C(O)c1cccnc1 [Nicotinic acid] |  |  |  |  |  |  |  |  | Growth rate mm-in-diam, on agar ([2]; isolate ATCC46487): 40.5 mm-in-diam; Growth rate mm-in-diam, on agar ([2]; isolate JA16-1): 20.0 mm-in-diam; Growth rate mm-in-diam, on agar ([2]; isolate OWVT-1): 27.7 mm-in-diam; Spore germination %, on agar ([2]; isolate ATCC46487): 77.8%; Sporulation 10^3/cm^2, on agar ([2]; isolate ATCC46487): 30.1 10^3/cm^2; Spore germination %, on agar ([2]; isolate JA16-1): 94.4%; Sporulation 10^3/cm^2, on agar ([2]; isolate JA16-1): 12.2 10^3/cm^2; growth in liquit culture (visual rating) ([2]; isolate JA16-1): I; Spore germination %, on agar ([2]; isolate OWVT-1): 57.8%; Sporulation 10^3/cm^2, on agar ([2]; isolate OWVT-1): 10.7 10^3/cm^2
17 | NC(N)=O [Urea] | 43.5 | 14.0 | 16.7 mm-in-diam | 91.1 | 85.6 | 64.4 |  |  | growth in liquit culture (visual rating) ([1]; isolate ATCC46487): IV (IV = the pellet diameter larger than 1 cm, but the total volume distribution less than 5 ml)
18 | Casein |  |  | 23.0 mm-in-diam | 96.7 | 90.0 | 44.4 |  |  | Sporulation 10^3/cm^2, on agar ([1]; isolate OWVT-1): 43.6 10^3/cm^2
19 | Inulin |  |  |  |  |  |  |  |  | Growth mm-in-diam, on agar ([3]; isolate ATCC46487, 5 weeks): 36.7 mm-in-diam; Growth mm-in-diam, on agar ([3]; isolate JA16-1, 5 weeks): 20.0 mm-in-diam; Growth mm-in-diam, on agar ([3]; isolate OWVT-1, 5 weeks): 25.2 mm-in-diam; Sporulation 10^3/cm^2, on agar ([3]; carbon source, isolate ATCC46487, 5 weeks): 3.5 10^3/cm^2; Spore germination %, on agar ([3]; carbon source, isolate ATCC46487): 54.4%; Sporulation 10^3/cm^2, on agar [3, 4]: 10.4 10^3/cm^2; growth in liquid culture (visual rating) [3, 4]: I; Spore germination %, on agar ([3]; carbon source, isolate JA16-1): 72.2%; Sporulation 10^3/cm^2, on agar ([3]; carbon source, isolate OWVT-1, 5 weeks): 4.2 10^3/cm^2; Spore germination %, on agar ([3]; carbon source, isolate OWVT-1): 50.0%
